Assay results from patent US20060068503A1, “Solid support membranes for ion channel arrays and sensors: application ro rapid screening of pharmacological compounds” (priority 2004, published 2006).

Assays:
[1] = target: T1, Kv1.5 K+ channel (Homo sapiens, UniProt P22460); test: Whole cell patch clamp of dexamethasone-induced Kv1.5-transfected Ltk-cells; assay type: cell-based; settings: Ltk-cells overexpressing Kv1.5, whole cell patch clamp
T1 construct: expressed in transfected cells; host or cells: Ltk- cells (mouse fibroblasts), stably transfected, expression induced with 2 uM dexamethasone
Method: Whole-cell Kv1.5 current recordings are made at room temperature via the gigaseal patch clamp technique using an Axopatch-1D amplifier (Axon Instruments, Foster City, Calif.). Ltk-cells overexpressing Kv1.5 channels are cultured for 24-72 hr, induced to express Kv1.5 channels by 24 hr incubation with 2 μM dexamethasone prior to use for patch clamp studies. Small, spherical cells approximately 10 microns in diameter are used for all patch recordings. Electrodes are made from TW-150F glass capillary tubes (World Precision Instruments, New Haven Conn.) and had resistances of 1.5-3.0 megohms when filled with internal solution containing: 110 Mm KCl, 5 mM K2ATP, 5 mM K4BAPTA, 1 mM MgCl2 and 10 mM HEPES, adjusted to pH 7.2 with KOH. The external solution contained: 130 mM NaCl, 4 mM KCl, 1.8 mM CaCl2 1 mM MgCl2, 10 mM HEPES, 10 mM glucose, adjusted to pH 7.4 with NaOH. Series resistance is compensated following rupture of the seal. Currents are sampled at 1 KHZ and filtered at 500 Hz. Cells are pulsed to +60 mV every 5 sec from a holding potential of −70 mV in 20 mV increments. […] Whole cell patch data are analyzed using Clampfit 8.0 in pCLAMP software (Axon Instruments). IC50 values for compounds are determined by nonlinear regression analysis using GraphPad Prism software (San Diego, Calif.).

[2] = target: T2, Kv1.5 K+ channels reconstituted on the SSM (Homo sapiens, UniProt P22460); test: Kv1.5 K+ channel current on solid supported membrane (SSM); assay type: biochemical; settings: for IC50: SSM-reconstituted channels, -80 mV, n=3, read-out: half-maximal inhibition of Kv1.5 K+ channel current, IC50
T2 construct: expressed in transfected cells; host or cells: Ltk- cells (mouse fibroblasts), stably transfected, expression induced with 2 uM dexamethasone
Method: An Ltk-cell line (mouse fibroblast cells) stably overexpressing Kv1.5 K+ channels under control of a dexamethasone promoter is used to prepare plasma membrane vesicles. Expression of Kv1.5 is induced in Ltk-cells by addition of dexamethasone to the medium. The dexamethasone-specific induction of channel expression is totally specific for Kv1.5 channels. Cells are grown in 2 μM dexamethasone for 24 hr prior to use. The cells are centrifuged for 5 min at 1000 rpm and resuspended in 1.0 ml of 20 mM HEPES (pH 7.5), 20 mM NaCl, 100 mM KCl, 1.0 mM EDTA, 0.02% NaN3, 1 mM PMSF, 10 μg/μl leupeptin, and 50 μg/μl aprotinin. After freeze-thawing twice, the membrane fragments/vesicles are collected following centrifugation at 12,000 g for 20 min at 4 °C. Membrane vesicles are also prepared from uninduced Ltk-cells (no dexamethasone incubation) transfected with Kv1.5 K+ channel cDNA and from non-transfected Lkt-cells.
Glass slides are first plated with chromium (5 nm), and then gold (150 nm). The slide is then immersed in ethanol containing 1% octadecanethiol (w/w) for 48 hr to attach alkyl thiol groups. After cleaning the gold plated slide with anhydrous isopropanol, epoxy resin is applied to the surface of the thiol-treated gold. Defects in the epoxy resin coating are used as the experimental chamber after coating the device with a lipid monolayer. […]
Membrane vesicles containing Kv1.5 K+ channels are added to the lipid coated wells containing 125 mM KCl/10 mM K-HEPES pH 7.4. Currents are measured with an HS-2A headstage and Gene Clamp 500 amplifier (Axon Instruments). […] Voltages ranging from −80 mV to +70 mV are applied in 10 mV increments for 200 msec, and electrical currents are recorded. […] Cation selectivity is measured by removing K+ from the medium and replacing it with Na+. Currents are first measured with K+ present. SSMs are then washed with K+-free, Na+-containing medium and currents were measured with Na+ present. Currents with K+ present are re-measured. […]

T2 sequence (P22460 whole entry): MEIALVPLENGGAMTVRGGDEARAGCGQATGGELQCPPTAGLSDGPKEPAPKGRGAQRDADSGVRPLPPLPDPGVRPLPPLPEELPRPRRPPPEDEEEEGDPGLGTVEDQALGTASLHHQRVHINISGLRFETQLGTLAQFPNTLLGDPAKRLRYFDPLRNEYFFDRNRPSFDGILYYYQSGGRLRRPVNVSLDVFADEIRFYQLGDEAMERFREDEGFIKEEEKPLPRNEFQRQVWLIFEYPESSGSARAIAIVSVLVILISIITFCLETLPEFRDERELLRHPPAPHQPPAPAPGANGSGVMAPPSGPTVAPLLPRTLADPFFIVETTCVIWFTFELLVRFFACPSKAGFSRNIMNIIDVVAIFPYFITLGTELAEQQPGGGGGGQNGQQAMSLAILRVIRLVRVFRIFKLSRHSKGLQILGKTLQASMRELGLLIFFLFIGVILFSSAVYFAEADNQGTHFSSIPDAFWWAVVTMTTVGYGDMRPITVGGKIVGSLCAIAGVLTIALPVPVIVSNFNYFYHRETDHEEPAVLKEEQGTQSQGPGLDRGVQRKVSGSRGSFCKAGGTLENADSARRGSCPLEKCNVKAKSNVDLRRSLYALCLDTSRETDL
T1 sequence (P22460 whole entry): as above

In the case of `CCc1ccc(S(=O)(=O)N[C@H]2c3cc(NC(=O)c4cccc(OC)c4)ccc3C[C@@H]2O)cc1` [Compound A, N-[(2S,3S)-3-[[(4-ethylphenyl)sulfonyl]amino]-2,3-dihydro-2-hydroxy-1H-inden-5yl]-3-methoxybenzamide], the IC50 [1] is reported as 170 nM, the “effect on current at varying holding potentials” value ([2]; 100 nM, holding potentials outside the range of ±20 mV) is reported as “current decreased” and the IC50 [2] is reported as 218 nM.
For `COc1ccc(CCN2C(=O)CSC2c2ccc(C)c(C)c2)cc1` (centres unmarked) [Compound B, 2-(3,4-dimethyphenyl)-3-[2-(4-methoxyphenyl)ethyl]-thiazolidin-4-one], the IC50 [1] was 137 nM and the IC50 [2] was 265 nM.
